Test results as given in the supplement of paper PMC10307832.

What was measured:
Experiment in all cases: relative viability (nuclei count vs DMSO), 5 days (fraction); higher = more cells survive
GW-2580 + OSI-027 = compound: COC1=CC=C(C=C1)COC2=C(C=C(C=C2)CC3=CN=C(N=C3N)N)OC [GW-2580] + COc1cccc2cc(-c3nc([C@H]4CC[C@H](C(=O)O)CC4)n4ncnc(N)c34)[nH]c12 [OSI-027] (partner 0.5 µM)
Method in brief: (§1)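 For relative viability, nuclei counts in treated wells were divided by those in vehicle wells. Lung cancer cell lines had been pin-tool dosed in 1536-well plates the day after seeding and cultured for 5 days, then fixed and stained in one step (final 0.05% Triton X-100, 1% formaldehyde, 1 ug/ml Hoechst) and imaged at 4×. Doses were one drug alone or a fixed anchor-drug dose plus five library-drug doses (not always all listed) in √10 steps, and values are duplicate-plate medians.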

GW-2580 + Alpelisib = compound: COC1=CC=C(C=C1)COC2=C(C=C(C=C2)CC3=CN=C(N=C3N)N)OC [GW-2580] + Cc1nc(NC(=O)N2CCC[C@H]2C(N)=O)sc1-c1ccnc(C(C)(C)C(F)(F)F)c1 [Alpelisib] (partner 2 µM)
Method in brief: as §1

Fedratinib + Palbociclib = compound: Cc1cnc(Nc2ccc(OCCN3CCCC3)cc2)nc1Nc1cccc(S(=O)(=O)NC(C)(C)C)c1 [Fedratinib] + CC(=O)c1c(C)c2cnc(Nc3ccc(N4CCNCC4)cn3)nc2n(C2CCCC2)c1=O [Palbociclib] (partner 0.5 µM)
Method in brief: as §1

Fedratinib + Bortezomib = compound: Cc1cnc(Nc2ccc(OCCN3CCCC3)cc2)nc1Nc1cccc(S(=O)(=O)NC(C)(C)C)c1 [Fedratinib] + CC(C)C[C@H](NC(=O)[C@H](Cc1ccccc1)NC(=O)c1cnccn1)B(O)O [Bortezomib] (partner 0.002 µM)
Method in brief: as §1

Fedratinib + Lapatinib = compound: Cc1cnc(Nc2ccc(OCCN3CCCC3)cc2)nc1Nc1cccc(S(=O)(=O)NC(C)(C)C)c1 [Fedratinib] + CS(=O)(=O)CCNCc1ccc(-c2ccc3ncnc(Nc4ccc(OCc5cccc(F)c5)c(Cl)c4)c3c2)o1 [Lapatinib] (partner 2 µM)
Method in brief: as §1

Fedratinib + AZD7762 = compound: Cc1cnc(Nc2ccc(OCCN3CCCC3)cc2)nc1Nc1cccc(S(=O)(=O)NC(C)(C)C)c1 [Fedratinib] + NC(=O)Nc1cc(-c2cccc(F)c2)sc1C(=O)N[C@H]1CCCNC1 [AZD7762] (partner 0.2 µM)
Method in brief: as §1

Cell Line	relative viability (GW-2580 + OSI-027; first compound 0.08 µM)	relative viability (GW-2580 + OSI-027; first compound 0.8 µM)	relative viability (GW-2580 + OSI-027; first compound 2.53 µM)	relative viability (GW-2580 + OSI-027; first compound 8 µM)	relative viability (GW-2580 + Alpelisib; first compound 0.08 µM)	relative viability (GW-2580 + Alpelisib; first compound 0.8 µM)	relative viability (GW-2580 + Alpelisib; first compound 2.53 µM)	relative viability (GW-2580 + Alpelisib; first compound 8 µM)	relative viability (Fedratinib + Palbociclib; first compound 0.1 µM)	relative viability (Fedratinib + Palbociclib; first compound 0.3162 µM)	relative viability (Fedratinib + Palbociclib; first compound 1 µM)	relative viability (Fedratinib + Bortezomib; first compound 0.1 µM)	relative viability (Fedratinib + Bortezomib; first compound 0.3162 µM)	relative viability (Fedratinib + Bortezomib; first compound 1 µM)	relative viability (Fedratinib + Lapatinib; first compound 0.1 µM)	relative viability (Fedratinib + Lapatinib; first compound 0.3162 µM)	relative viability (Fedratinib + Lapatinib; first compound 1 µM)	relative viability (Fedratinib + AZD7762; first compound 0.1 µM)	relative viability (Fedratinib + AZD7762; first compound 0.3162 µM)	relative viability (Fedratinib + AZD7762; first compound 1 µM)
COR-L 105	0.662	0.807	0.713	0.676	0.91	1.28	0.946	0.902	0.393	0.41	0.405	0.685	0.839	0.289	0.297	0.379	0.336	–	–	–
LK-2	0.208	0.19	0.208	0.189	1.21	1.21	0.849	1.38	0.55	0.581	0.608	–	–	–	0.798	0.828	0.638	0.286	0.393	0.293
NCI-H596	0.823	0.733	0.76	0.808	0.486	0.525	0.516	0.471	–	–	–	1.01	1.21	0.919	0.961	1.07	0.829	0.965	1.04	1.13
NCI-H2023	0.512	0.459	0.39	0.393	0.611	0.625	0.513	0.604	0.391	0.356	0.248	1.08	0.95	0.0957	0.897	0.75	0.083	–	–	–
NCI-H1944	0.463	0.46	0.439	0.365	0.826	0.94	0.828	0.759	0.305	0.358	0.318	–	–	–	0.816	0.803	0.615	0.475	0.594	0.458
NCI-H1793	0.365	0.323	0.306	0.254	0.659	0.679	0.634	0.775	0.316	0.319	0.313	–	–	–	0.628	0.61	0.311	0.324	0.402	0.326
NCI-H520	0.276	0.316	0.241	0.272	1.02	0.988	0.837	0.966	0.149	0.214	0.164	0.524	0.711	0.173	0.86	0.717	0.18	–	–	–
A549	–	–	–	–	0.723	0.688	0.721	0.764	–	–	–	–	–	–	1.16	0.907	0.875	–	–	–
NCI-H358	0.944	0.817	0.667	0.742	0.967	0.872	0.851	0.775	0.131	0.0975	0.107	–	–	–	0.366	0.369	0.334	0.502	0.49	0.438
NCI-H1563	0.827	0.803	0.737	0.707	0.989	1.05	0.853	0.869	–	–	–	0.699	0.939	0.631	0.915	1.07	0.65	–	–	–
NCI-H1395	0.64	0.689	0.661	0.684	1.04	0.941	1.03	1.01	0.599	0.561	0.493	–	–	–	0.911	1.11	0.786	0.385	0.402	0.377
NCI-H2009	0.665	0.707	0.619	0.633	1.16	1.17	1.08	1.11	0.185	0.254	0.161	0.99	1.11	0.131	0.915	1.02	0.171	–	–	–
NCI-H522	0.688	0.618	0.845	0.723	–	–	–	–	0.847	0.893	1.03	–	–	–	–	–	–	0.829	0.851	0.77
IA-LM	–	–	–	–	1.11	0.725	0.656	0.883	–	–	–	0.747	0.784	0.642	0.873	0.632	0.46	–	–	–
SK-LU-1	0.366	0.347	0.321	0.348	0.936	1.09	0.85	1.18	0.393	0.317	0.34	1.33	1.23	0.967	0.851	0.871	0.578	–	–	–
NCI-H1703	–	–	–	–	0.308	0.334	0.323	0.331	–	–	–	0.244	0.341	0.24	0.675	0.834	0.667	0.126	0.138	0.121
NCI-H441	0.653	0.634	0.586	0.77	0.972	0.853	0.718	0.699	0.195	0.176	0.204	0.538	0.484	0.236	–	–	–	1.34	1.09	1.05
LCLC-103H	0.482	0.434	0.482	0.458	0.928	1.11	0.961	0.954	0.479	0.502	0.477	0.801	0.997	0.897	–	–	–	0.857	0.72	0.647
SW 900	0.69	0.693	0.569	0.75	–	–	–	–	0.547	0.514	0.47	–	–	–	–	–	–	0.621	0.692	0.608
